# System: severed left femoral artery
# Assay: Severed femoral artery bleeding model in anesthetized mice, topical VRA by cotton-tipped applicator
# Format: in vivo
# Protocol: Approximately 4 to 6 week old white mice weighing about 20 grams were anesthetized using 50 microliters of anesthetic (ketamine+xylazine) intraperitoneally. The area near the inguinal region (1.75 cm proximal to the ankle) was shaved and a 0.5 to 1 cm incision was made such that the left femoral artery was severed. The incision was washed with normal saline. Control animals were treated with saline while test animals were treated with a VRA (alvinil) (approx. 500 microliters of a 0.8 mmol solution) administered topically with a cotton-tipped applicator soaked with the VRA solution over the wound. The applicator was then removed after 5 seconds and the wound was evaluated for signs of hemorrhage.
# In the control mice, the wound was continuously flushed with saline.
# In the treatment group of animals, the wound was treated with arvinil by swab application, then flushed once with saline. […] After 10 minutes, a second incision was made in the femoral artery above the previous cut resulting in severe hemorrhage.
compound,measurement,setting,value
CCCCC/C=C\C/C=C\C/C=C\C/C=C\CCCC(=O)NCc1ccc(O)c(OC)c1 [arvinil],signs of shock,during the course of the experiment after topical treatment of the severed femoral artery,No signs of shock
same,heart perfusion at euthanasia (KCl heart puncture),end of experiment after topical treatment of both cuts,fully perfused
same,bleeding from second incision in femoral artery after application,"second incision above the previous cut after 10 minutes caused severe hemorrhage, topical application to the second cut",cessation of bleeding
same,bleeding from severed femoral artery after treatment,"swab application, approx. 500 microliters of 0.8 mmol solution, applicator removed after 5 seconds, observed following one saline flush",No bleeding was observed

# Source: US20090042946A1, “METHOD AND KIT FOR C[…]” (priority 2003, published 2009)
